Experiment [1] deals with U937 (human leukemic monocyte lymphoma) cell line. As to the kind of experiment: Cell viability assay (CELL-TITER-GLO), U937. The experiment is classed as cell-based. The conditions noted are these: U-937, U937 cells, 48 hour treatment, 1 nM to 1 μM. The procedure: (§1) Cell viability assays were run using standard protocols known to those of skill in art. Cells were plated in 96 well plates at the density of 3,000-10,000 cells per well. Twenty four hours later, cells were treated with increasing concentration of test compounds (1 nM to 1 μM). After another 48 hour, cell survival was measured using CELL-TITER-GLO® reagent (Promega) following the protocol provided by the manufacture. The IC50 value was determined as the concentration of test compound that kills 50% of the cell population.
(§2) Cell viability data generated according to the protocol described herein was generated for representative compounds in the A2058 (human melanoma) and U937 (human leukemic monocyte lymphoma) cell lines. The compound of Example 16 (“Compound J”) was used as a reference compound.

The subject of experiment [2] is A2058 (human melanoma) cell line. Description: Cell viability assay (CELL-TITER-GLO), A2058. The experiment is classed as cell-based. The conditions noted are these: A2058 cells, 48 hour treatment, 1 nM to 1 μM. How it is done: as §1, §2

Broadly, the IC50 is the concentration needed to halve the response being measured.

Turning to `CC(C)[C@H](O)C(=O)N[C@H]1Cc2ccc3c(c2)C24C5=C(N=C(O5)[C@H](C(C)C)NC1=O)c1nc(Cl)c(o1)-c1c(Cl)[nH]c5cccc(c15)-c1cccc2c1N[C@H]4O3` (stereo in doubt) [Example 85, Diazonamide A], the half-inhibitory concentration (IC50) in experiment [1] stood at 0.086 µM; in experiment [2] it was 0.057 µM.
Take `CC(C)[C@@H]1NC(=O)[C@@H](NC(=O)[C@@H](O)c2ccccc2)Cc2ccc3c(c2)C24C5=C(N=C1O5)c1ncc(o1)-c1c[nH]c5cccc(c15)-c1cccc2c1N[C@H]4O3` (stereo partly drawn) [Example 17]: the IC50 in experiment [1] amounted to 0.465 µM; in experiment [2], 0.63 µM.
On to `CC(C)[C@@H]1NC(=O)C(NC(=O)[C@H](C)O)Cc2ccc3c(c2)[C@]24C5=C(N=C1O5)c1ncc(o1)-c1c[nH]c5cccc(c15)-c1cccc2c1NC4O3` (stereo partly drawn) [Example 18], for which the half-inhibitory concentration (IC50) stood at 0.208 µM in experiment [1] and 0.394 µM in experiment [2].
Regarding `CC(C)[C@@H]1NC(=O)C(NC(=O)[C@@H](O)C(C)(C)C)Cc2ccc3c(c2)[C@]24C5=C(N=C1O5)c1ncc(o1)-c1c[nH]c5cccc(c15)-c1cccc2c1NC4O3` (stereo partly drawn) [Example 19], the half-maximal inhibitory concentration (IC50) amounted to 0.062 µM in experiment [1] and 0.222 µM in experiment [2].
For the compound `CC(C)C[C@H](O)C(=O)NC1Cc2ccc3c(c2)[C@]24C5=C(N=C(O5)[C@H](C(C)C)NC1=O)c1ncc(o1)-c1c[nH]c5cccc(c15)-c1cccc2c1NC4O3` (stereo partly drawn) [Example 20], the figures for the half-maximal inhibitory concentration (IC50) in experiment [1] and in experiment [2] were 0.142 µM and 0.158 µM, respectively.
With `CC(C)[C@@H]1NC(=O)C(NC(=O)[C@@H](O)C2CCCCC2)Cc2ccc3c(c2)[C@]24C5=C(N=C1O5)c1ncc(o1)-c1c[nH]c5cccc(c15)-c1cccc2c1NC4O3` (stereo partly drawn) [Example 21], the IC50 in experiment [1] and in experiment [2] was above 1 µM in each case.
With `CC(C)[C@@H]1NC(=O)C(NC(=O)C(C)(C)O)Cc2ccc3c(c2)[C@]24C5=C(N=C1O5)c1ncc(o1)-c1c[nH]c5cccc(c15)-c1cccc2c1NC4O3` (stereo partly drawn) [Example 22], the figures for the IC50 in experiment [1] and in experiment [2] were 0.146 µM and 0.23 µM, respectively.
In the same order, the values of `CC(C)[C@@H]1NC(=O)C(NC(=O)C2(O)CC2)Cc2ccc3c(c2)[C@]24C5=C(N=C1O5)c1ncc(o1)-c1c[nH]c5cccc(c15)-c1cccc2c1NC4O3` (stereo partly drawn) [Example 25] are 0.42 µM and 0.769 µM.
With `CC(C)[C@@H]1NC(=O)C(NC(=O)C2(O)CCCC2)Cc2ccc3c(c2)[C@]24C5=C(N=C1O5)c1ncc(o1)-c1c[nH]c5cccc(c15)-c1cccc2c1NC4O3` (stereo partly drawn) [Example 26], the IC50 in experiment [1] was 0.154 µM; in experiment [2], 0.214 µM.
In the same order, the values of `CC(C)[C@@H]1NC(=O)C(NC(=O)C2(O)CCCCC2)Cc2ccc3c(c2)[C@]24C5=C(N=C1O5)c1ncc(o1)-c1c[nH]c5cccc(c15)-c1cccc2c1NC4O3` (stereo partly drawn) [Example 27] are 0.128 µM and 0.181 µM.
As for `CCC(CO)(CO)C(=O)NC1Cc2ccc3c(c2)[C@]24C5=C(N=C(O5)[C@H](C(C)C)NC1=O)c1ncc(o1)-c1c[nH]c5cccc(c15)-c1cccc2c1NC4O3` (stereo partly drawn) [Example 28], the values for the concentration for half-maximal inhibition (IC50) in experiment [1] and in experiment [2] were 0.133 µM and 0.208 µM, respectively.
Taken in the same sequence, the figures for `CC(C)[C@@H]1NC(=O)C(NC(=O)[C@H](O)[C@@H](NC(=O)c2ccccc2)c2ccccc2)Cc2ccc3c(c2)[C@]24C5=C(N=C1O5)c1ncc(o1)-c1c[nH]c5cccc(c15)-c1cccc2c1NC4O3` (stereo partly drawn) [Example 29] were above 1 µM and above 1 µM.
In the case of `CO[C@H](C(=O)N[C@H]1Cc2ccc3c(c2)C24C5=C(N=C(O5)[C@H](C(C)C)NC1=O)c1ncc(o1)-c1c[nH]c5cccc(c15)-c1cccc2c1N[C@H]4O3)C(C)C` (stereo partly drawn) [Example 30], the IC50 came to 0.224 µM in experiment [1] and 0.197 µM in experiment [2].
Consider `CC(=O)O[C@H](C(=O)N[C@H]1Cc2ccc3c(c2)C24C5=C(N=C(O5)[C@H](C(C)C)NC1=O)c1ncc(o1)-c1c[nH]c5cccc(c15)-c1cccc2c1N[C@H]4O3)C(C)C` (stereo partly drawn) [Example 31], for which the results for the IC50 in experiment [1] and in experiment [2] were 0.062 µM and 0.194 µM, respectively.
Turning to `COC(=O)O[C@H](C(=O)N[C@H]1Cc2ccc3c(c2)C24C5=C(N=C(O5)[C@H](C(C)C)NC1=O)c1ncc(o1)-c1c[nH]c5cccc(c15)-c1cccc2c1N[C@H]4O3)C(C)C` (stereo partly drawn) [Example 32], the values for the IC50 in experiment [1] and in experiment [2] were 0.157 µM and 0.211 µM, respectively.

For the origin of these results see patent US8476256B2, “Diazonamide analogs” (Joyant Pharmaceuticals, Inc., priority 2008, dated 2013).
